Experimental data published in patent publication US8833306B2, “PACAP for aquatic organism culture” (priority 2005, dated 2014).
No end group written: not given here.

Assays:
[1] = tested on: tilapia Oreochromis niloticus; assay: Effect of recombinant PACAP on juvenile tilapia appetite (ingested food); assay type: in vivo; details: i.p. 0.1 μg/g; 6 hours and 22 hours; p<0.05
Description: To analyze the effect of the PACAP in the fish appetite, we used tilapia of the Oreochromis niloticus species, without sex distinction and approximately the same average body weight. Three experimental groups were formed having 3 individuals in each and 3 replicates per group. The groups were acclimated in separated tanks with stable water recirculation, to a temperature of 28° C. and with the photoperiod of 14 hours light and 10 hours dark. […] The second group was treated with the GHRP-6 (Lipotec, S.A, Spain) by the same administration via at the dose of 0.1 μg of the peptide by gram of the animal corporal weight. The control group was treated with E. coli proteins contained in PBS 1× (E. coli proteins were obtained by the same purification procedure of the interest peptide, with the amount equivalent of the contaminants presents in the purified PACAP sample). After the treatments, the same amount of food was added to the three experimental groups, collecting the non ingested food in 6 hour and adding food again. The appetite was measured again, 22 hours from the beginning of the experiment. The food not ingested in each tank was dried in the stove (100° C., during 24 h) and was weighed in an analytical balance. The ingested food was calculated determining the difference between the food added to the tanks (10 grams, with a 20% of humidity) and the food not ingested by the fish.

[2] = tested on: juvenile Clarias gariepinus; assay: Growth stimulation in Clarias gariepinus by recombinant PACAP in the fish diet; assay type: in vivo; details: in the diet at 5 mg/Kg of feed; 30 days; p<0.01
Description: The Pichia pastoris culture supernatant containing the recombinant PACAP (SEQ ID No. 14) was concentrated and formulated in the nutritional fish diet to a concentration of approximately 5 mg/Kg of feed. Two experimental groups were formed having 100 larvae in each with an average body weight of 0.1 g. One group was treated with recombinant PACAP (SEQ ID No. 14) containing in P. pastoris culture supernatants and the other used as a control group was treated with non-transformed P. pastoris culture supernatant. The experiment was carried out during 30 days.

Row | Substance | appetite (ingested food) compared with control group [1] | growth increase compared with control group [2] [%]
1 | GHRP-6 | significant appetite increase | –
2 | PACAP (SEQ ID No. 14): Clarias gariepinus recombinant PACAP variant contained in P. pastoris culture supernatants; used in Examples 6-8 (HSDGIFTDSYSRYRKQMAVKKYLAAVLGRRYRQRFRNK; ends and bridges not checked; listed as Clarias gariepinus) | – | 30
